Laboratory results reported in ChEMBL document CHEMBL5143636, “Design, synthesis and structure-activity relationship studies of pyrido[2,3-d]pyrimidin-7-ones as potent Janus Kinase 3 (JAK3) covalent inhibitors” (Bioorg Med Chem Lett, 2022).
Each block holds one compound with its values, some of them ahead of it. Active and inactive are the calls of the source. The calls are words filed in the database; no cut-off is given here.

Columns and labels:
[1] = target: Non-receptor tyrosine-protein kinase TYK2 (Homo sapiens, UniProt P29597); test: Inhibition of TYK2 (unknown origin) incubated for 1 hr in the presence of ATP by FRET based Z'-LYTE assay
OCI-Ly3 = test: Antiproliferative activity against human OCILY3 cells assessed as reduction in cell viability incubated for 72 hrs by CCK-8 assay; format: functional, cell-based; conditions: OCI-Ly3, 72 h
Jurkat = test: Antiproliferative activity against human Jurkat cells assessed as reduction in cell viability incubated for 72 hrs by CCK-8 assay; format: functional, cell-based
[2] = target: Tyrosine-protein kinase JAK1 (Homo sapiens, UniProt P23458); test: Inhibition of JAK1 (unknown origin) incubated for 1 hr in the presence of ATP by FRET based Z'-LYTE assay
NCI-H1299 = test: Antiproliferative activity against human NCI-H1299 cells assessed as reduction in cell viability incubated for 72 hrs by CCK-8 assay; format: functional, cell-based; conditions: NCI-H1299, 72 h
[3] = Selectivity ratio of IC50 for inhibition of BTK (unknown origin) to IC50 for covalent inhibition of recombinant human GST-tagged JAK3 (781 to 1124 residues) expressed in baculovirus expression system
[4] = target: Epidermal growth factor receptor (Homo sapiens, UniProt P00533, T790M); test: Inhibition of EGFR T790M mutant (unknown origin) incubated for 1 hr in the presence of ATP by FRET based Z'-LYTE assay
HCT-116 = test: Antiproliferative activity against human HCT-116 cells assessed as reduction in cell viability incubated for 72 hrs by CCK-8 assay; format: functional, cell-based; conditions: HCT-116, 72 h
U-937 [5] = test: Antiproliferative activity against human U-937 cells harbouring JAK3 M511 mutation assessed as reduction in cell viability incubated for 72 hrs by CCK-8 assay; format: functional, cell-based; conditions: U-937, 72 h
COLO 205 = test: Antiproliferative activity against human COLO 205 cells assessed as reduction in cell viability incubated for 72 hrs by CCK-8 assay; format: functional, cell-based; conditions: COLO 205, 72 h
U-937 [6] = test: Effect on JAK3 protein level in human U-937 cells at 12.5 to 200 nM measured after 12 hrs by Western blotting analysis; format: functional, cell-based; conditions: dose 12.5-200 nM
[7] = target: T1, Signal transducer and activator of transcription 5A (Homo sapiens) (UniProt P42229); test: Inhibition of STAT5 phosphorylation in human U-937 cells at 200 nM preincubated for 6 hrs followed by compound washout and measured upto 24 hrs by Western blotting analysis; format: cell-based
T1 sequence (whole entry): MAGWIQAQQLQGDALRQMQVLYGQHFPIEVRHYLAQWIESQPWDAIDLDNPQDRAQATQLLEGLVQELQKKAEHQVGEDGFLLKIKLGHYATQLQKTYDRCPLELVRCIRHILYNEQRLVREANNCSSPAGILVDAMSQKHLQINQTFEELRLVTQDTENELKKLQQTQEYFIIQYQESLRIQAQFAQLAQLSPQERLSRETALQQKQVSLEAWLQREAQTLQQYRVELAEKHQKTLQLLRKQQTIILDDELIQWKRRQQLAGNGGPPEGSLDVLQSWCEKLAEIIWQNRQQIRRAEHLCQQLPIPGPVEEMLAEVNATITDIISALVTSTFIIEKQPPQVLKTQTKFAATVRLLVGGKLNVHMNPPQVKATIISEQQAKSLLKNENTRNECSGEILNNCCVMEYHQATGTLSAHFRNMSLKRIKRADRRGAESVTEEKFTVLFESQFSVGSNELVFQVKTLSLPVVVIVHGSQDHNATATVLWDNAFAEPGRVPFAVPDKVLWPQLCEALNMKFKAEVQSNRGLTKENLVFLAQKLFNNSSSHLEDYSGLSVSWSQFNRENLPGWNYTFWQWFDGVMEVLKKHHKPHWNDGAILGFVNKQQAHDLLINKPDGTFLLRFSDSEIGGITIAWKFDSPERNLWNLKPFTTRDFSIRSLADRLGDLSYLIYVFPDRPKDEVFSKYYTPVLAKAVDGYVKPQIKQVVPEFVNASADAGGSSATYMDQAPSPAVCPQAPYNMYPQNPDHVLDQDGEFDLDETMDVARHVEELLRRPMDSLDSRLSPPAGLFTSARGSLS

[8] = target: Tyrosine-protein kinase JAK2 (Homo sapiens, UniProt O60674); test: Inhibition of JAK2 (unknown origin) incubated for 1 hr in the presence of ATP by FRET based Z'-LYTE assay
Daudi = test: Antiproliferative activity against human Daudi cells assessed as reduction in cell viability incubated for 72 hrs by CCK-8 assay; format: functional, cell-based
[9] = target: T2, Tyrosine-protein kinase JAK3 (Homo sapiens) (UniProt P52333); test: Inhibition of JAK3 phosphorylation in human U-937 cells measured after 12 hrs by Western blotting analysis; format: cell-based; conditions: dose 12.5-200 nM, DDE = dose-dependent effect
T2 sequence (whole entry): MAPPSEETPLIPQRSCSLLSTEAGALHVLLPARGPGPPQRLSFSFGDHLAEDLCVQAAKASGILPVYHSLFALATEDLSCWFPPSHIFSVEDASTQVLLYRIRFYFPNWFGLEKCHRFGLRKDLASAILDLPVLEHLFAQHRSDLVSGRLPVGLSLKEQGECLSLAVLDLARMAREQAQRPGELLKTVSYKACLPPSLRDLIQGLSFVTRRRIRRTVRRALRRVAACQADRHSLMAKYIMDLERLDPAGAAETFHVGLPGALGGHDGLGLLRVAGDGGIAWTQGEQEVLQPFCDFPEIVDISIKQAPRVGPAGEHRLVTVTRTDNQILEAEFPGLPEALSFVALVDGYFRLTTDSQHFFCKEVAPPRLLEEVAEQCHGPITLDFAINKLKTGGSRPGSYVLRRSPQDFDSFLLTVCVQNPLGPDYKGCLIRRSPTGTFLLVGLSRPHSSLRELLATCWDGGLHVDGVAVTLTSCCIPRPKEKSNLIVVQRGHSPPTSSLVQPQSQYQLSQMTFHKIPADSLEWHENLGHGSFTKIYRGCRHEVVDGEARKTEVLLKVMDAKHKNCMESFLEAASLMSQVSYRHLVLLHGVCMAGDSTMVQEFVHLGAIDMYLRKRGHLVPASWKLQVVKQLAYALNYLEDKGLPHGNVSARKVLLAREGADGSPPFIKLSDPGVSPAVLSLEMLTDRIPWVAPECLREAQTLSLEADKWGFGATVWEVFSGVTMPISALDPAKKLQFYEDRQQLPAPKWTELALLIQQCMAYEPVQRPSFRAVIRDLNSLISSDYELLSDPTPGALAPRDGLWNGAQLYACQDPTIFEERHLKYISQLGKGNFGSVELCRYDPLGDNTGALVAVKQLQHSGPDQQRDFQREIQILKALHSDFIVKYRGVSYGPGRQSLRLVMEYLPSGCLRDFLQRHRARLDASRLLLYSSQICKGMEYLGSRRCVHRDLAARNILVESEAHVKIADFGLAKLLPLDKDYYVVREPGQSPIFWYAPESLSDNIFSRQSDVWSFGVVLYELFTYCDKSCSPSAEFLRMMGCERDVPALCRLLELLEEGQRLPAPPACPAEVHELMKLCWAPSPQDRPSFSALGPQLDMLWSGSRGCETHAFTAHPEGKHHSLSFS

[10] = target: Epidermal growth factor receptor (Homo sapiens, UniProt P00533); test: Inhibition of wild type EGFR (unknown origin) incubated for 1 hr in the presence of ATP by FRET based Z'-LYTE assay
[11] = target: T1, Signal transducer and activator of transcription 5A (Homo sapiens); test: Inhibition STAT5 phosphorylation in human U-937 cells measured after 12 hrs by Western blotting analysis; format: cell-based; conditions: dose 12.5-200 nM, DDE = dose-dependent effect
[12] = Selectivity ratio of IC50 for inhibition of wild type EGFR (unknown origin) to IC50 for covalent inhibition of recombinant human GST-tagged JAK3 (781 to 1124 residues) expressed in baculovirus expression system
MDA-MB-231 = test: Antiproliferative activity against human MDA-MB-231 cells assessed as reduction in cell viability incubated for 72 hrs by CCK-8 assay; format: functional, cell-based; conditions: MDA-MB-231, 72 h
[13] = Selectivity ratio of IC50 for inhibition of EGFR T790M mutant (unknown origin) to IC50 for covalent inhibition of recombinant human GST-tagged JAK3 (781 to 1124 residues) expressed in baculovirus expression system
U-937 [14] = test: Effect on STAT5 protein level in human U-937 cells at 12.5 to 200 nM measured after 12 hrs by Western blotting analysis; format: functional, cell-based; conditions: dose 12.5-200 nM
[15] = target: Tyrosine-protein kinase BTK (Homo sapiens, UniProt Q06187); test: Inhibition of BTK (unknown origin) incubated for 1 hr in the presence of ATP by FRET based Z'-LYTE assay
[16] = target: T2, Tyrosine-protein kinase JAK3 (Homo sapiens); test: Inhibition of JAK3 phosphorylation in human U-937 cells at 200 nM preincubated for 6 hrs followed by compound washout and measured upto 24 hrs by Western blotting analysis; format: cell-based
MOLT-4 = test: Antiproliferative activity against human MOLT-4 cells assessed as reduction in cell viability incubated for 72 hrs by CCK-8 assay; format: functional, cell-based; conditions: MOLT-4, 72 h
[17] = target: T3, Tyrosine-protein kinase JAK3 (Homo sapiens, UniProt P52333)
T3 sequence (P52333 whole entry): T2 sequence (whole entry)
Description: Covalent inhibition of recombinant recombinant human GST-tagged JAK3(781 to 1124 residues) expressed in baculovirus expression system incubated for 1 hr in the presence of ATP by FRET based Z'-LYTE assay

[18] = target: T3, Tyrosine-protein kinase JAK3; test: Inhibition of JAK3 (unknown origin) incubated for 1 hr in the presence of ATP by FRET based Z'-LYTE assay

Sequence of Tyrosine-protein kinase BTK (Q06187 whole entry): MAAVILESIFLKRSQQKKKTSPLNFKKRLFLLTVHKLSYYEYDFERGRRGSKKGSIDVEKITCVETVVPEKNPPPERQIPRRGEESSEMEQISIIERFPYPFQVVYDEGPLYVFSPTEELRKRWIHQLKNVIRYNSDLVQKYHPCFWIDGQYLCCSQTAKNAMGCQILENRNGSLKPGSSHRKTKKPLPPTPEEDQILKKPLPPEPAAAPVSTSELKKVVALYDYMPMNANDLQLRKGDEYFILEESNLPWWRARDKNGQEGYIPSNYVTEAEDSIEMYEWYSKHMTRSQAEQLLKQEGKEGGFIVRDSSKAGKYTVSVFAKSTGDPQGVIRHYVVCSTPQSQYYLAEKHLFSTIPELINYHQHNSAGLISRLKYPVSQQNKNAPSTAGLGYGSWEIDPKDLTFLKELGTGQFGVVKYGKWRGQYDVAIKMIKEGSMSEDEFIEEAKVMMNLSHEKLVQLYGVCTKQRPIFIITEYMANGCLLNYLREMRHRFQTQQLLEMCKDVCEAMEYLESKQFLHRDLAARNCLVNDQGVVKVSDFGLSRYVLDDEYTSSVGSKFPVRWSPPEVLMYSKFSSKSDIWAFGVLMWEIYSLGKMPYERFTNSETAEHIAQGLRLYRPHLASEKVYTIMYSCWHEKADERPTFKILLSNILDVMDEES
Sequence of Tyrosine-protein kinase JAK1 (P23458 whole entry): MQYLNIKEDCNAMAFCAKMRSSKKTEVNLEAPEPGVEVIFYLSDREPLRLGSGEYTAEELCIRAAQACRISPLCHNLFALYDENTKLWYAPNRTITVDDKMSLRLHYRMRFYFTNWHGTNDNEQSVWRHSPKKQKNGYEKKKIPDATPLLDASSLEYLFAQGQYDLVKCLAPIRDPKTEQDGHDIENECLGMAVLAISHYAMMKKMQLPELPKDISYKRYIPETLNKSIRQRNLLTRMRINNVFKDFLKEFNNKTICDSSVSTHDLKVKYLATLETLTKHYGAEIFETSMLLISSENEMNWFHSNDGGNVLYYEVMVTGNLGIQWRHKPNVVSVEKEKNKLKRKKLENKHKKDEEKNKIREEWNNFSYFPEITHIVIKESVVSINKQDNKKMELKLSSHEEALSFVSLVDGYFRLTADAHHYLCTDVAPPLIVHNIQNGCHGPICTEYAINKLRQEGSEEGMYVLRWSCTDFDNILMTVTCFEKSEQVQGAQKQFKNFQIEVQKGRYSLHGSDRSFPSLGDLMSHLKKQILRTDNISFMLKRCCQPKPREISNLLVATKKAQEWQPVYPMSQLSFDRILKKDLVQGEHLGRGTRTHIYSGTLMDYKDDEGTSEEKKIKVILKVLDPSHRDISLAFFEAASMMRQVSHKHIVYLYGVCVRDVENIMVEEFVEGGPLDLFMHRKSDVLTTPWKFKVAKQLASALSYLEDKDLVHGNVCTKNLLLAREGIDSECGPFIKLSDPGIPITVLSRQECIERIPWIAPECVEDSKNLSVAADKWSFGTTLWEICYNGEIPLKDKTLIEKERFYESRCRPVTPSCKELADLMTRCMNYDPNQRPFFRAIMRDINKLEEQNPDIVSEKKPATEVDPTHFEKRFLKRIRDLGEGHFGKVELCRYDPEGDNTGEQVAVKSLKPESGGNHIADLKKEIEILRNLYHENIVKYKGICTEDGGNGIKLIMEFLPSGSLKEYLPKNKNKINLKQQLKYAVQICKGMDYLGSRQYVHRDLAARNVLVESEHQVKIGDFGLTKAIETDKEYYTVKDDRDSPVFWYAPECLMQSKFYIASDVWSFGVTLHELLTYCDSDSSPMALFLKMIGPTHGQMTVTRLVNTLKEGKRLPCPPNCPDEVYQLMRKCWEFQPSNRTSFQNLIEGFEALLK
Sequence of Epidermal growth factor receptor (Homo sapiens, UniProt P00533, T790M) (P00533 25-1210 T790M limits assumed): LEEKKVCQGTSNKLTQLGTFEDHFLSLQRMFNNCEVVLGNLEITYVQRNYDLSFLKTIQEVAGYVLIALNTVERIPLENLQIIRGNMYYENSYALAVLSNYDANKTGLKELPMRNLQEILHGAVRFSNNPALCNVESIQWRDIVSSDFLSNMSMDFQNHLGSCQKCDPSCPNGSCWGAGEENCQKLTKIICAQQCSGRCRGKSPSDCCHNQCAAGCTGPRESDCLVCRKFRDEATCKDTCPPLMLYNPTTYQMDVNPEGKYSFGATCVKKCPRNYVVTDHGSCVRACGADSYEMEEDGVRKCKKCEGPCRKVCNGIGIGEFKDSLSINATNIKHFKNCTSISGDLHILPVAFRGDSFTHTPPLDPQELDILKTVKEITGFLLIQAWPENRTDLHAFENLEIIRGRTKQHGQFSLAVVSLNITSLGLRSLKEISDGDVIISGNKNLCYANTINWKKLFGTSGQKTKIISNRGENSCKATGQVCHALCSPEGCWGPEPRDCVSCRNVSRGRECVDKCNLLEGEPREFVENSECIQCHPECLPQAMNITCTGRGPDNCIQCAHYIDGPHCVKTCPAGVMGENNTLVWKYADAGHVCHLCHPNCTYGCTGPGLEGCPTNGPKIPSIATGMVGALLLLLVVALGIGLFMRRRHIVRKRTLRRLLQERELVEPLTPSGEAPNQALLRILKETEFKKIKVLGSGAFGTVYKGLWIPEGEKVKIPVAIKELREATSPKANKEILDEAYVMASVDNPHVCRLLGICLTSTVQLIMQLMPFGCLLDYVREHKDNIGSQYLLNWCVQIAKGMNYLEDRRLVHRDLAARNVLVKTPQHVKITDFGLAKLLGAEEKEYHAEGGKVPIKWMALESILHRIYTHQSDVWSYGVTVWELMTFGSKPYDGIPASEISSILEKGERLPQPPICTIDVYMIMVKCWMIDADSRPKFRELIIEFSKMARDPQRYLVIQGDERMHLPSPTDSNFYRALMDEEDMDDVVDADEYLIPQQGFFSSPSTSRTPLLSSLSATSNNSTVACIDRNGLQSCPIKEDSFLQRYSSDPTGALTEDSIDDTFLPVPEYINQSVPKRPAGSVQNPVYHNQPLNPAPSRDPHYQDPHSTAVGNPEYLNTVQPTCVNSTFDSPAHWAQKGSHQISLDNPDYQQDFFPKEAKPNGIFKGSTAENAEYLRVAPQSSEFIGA
Sequence of Non-receptor tyrosine-protein kinase TYK2 (P29597 whole entry): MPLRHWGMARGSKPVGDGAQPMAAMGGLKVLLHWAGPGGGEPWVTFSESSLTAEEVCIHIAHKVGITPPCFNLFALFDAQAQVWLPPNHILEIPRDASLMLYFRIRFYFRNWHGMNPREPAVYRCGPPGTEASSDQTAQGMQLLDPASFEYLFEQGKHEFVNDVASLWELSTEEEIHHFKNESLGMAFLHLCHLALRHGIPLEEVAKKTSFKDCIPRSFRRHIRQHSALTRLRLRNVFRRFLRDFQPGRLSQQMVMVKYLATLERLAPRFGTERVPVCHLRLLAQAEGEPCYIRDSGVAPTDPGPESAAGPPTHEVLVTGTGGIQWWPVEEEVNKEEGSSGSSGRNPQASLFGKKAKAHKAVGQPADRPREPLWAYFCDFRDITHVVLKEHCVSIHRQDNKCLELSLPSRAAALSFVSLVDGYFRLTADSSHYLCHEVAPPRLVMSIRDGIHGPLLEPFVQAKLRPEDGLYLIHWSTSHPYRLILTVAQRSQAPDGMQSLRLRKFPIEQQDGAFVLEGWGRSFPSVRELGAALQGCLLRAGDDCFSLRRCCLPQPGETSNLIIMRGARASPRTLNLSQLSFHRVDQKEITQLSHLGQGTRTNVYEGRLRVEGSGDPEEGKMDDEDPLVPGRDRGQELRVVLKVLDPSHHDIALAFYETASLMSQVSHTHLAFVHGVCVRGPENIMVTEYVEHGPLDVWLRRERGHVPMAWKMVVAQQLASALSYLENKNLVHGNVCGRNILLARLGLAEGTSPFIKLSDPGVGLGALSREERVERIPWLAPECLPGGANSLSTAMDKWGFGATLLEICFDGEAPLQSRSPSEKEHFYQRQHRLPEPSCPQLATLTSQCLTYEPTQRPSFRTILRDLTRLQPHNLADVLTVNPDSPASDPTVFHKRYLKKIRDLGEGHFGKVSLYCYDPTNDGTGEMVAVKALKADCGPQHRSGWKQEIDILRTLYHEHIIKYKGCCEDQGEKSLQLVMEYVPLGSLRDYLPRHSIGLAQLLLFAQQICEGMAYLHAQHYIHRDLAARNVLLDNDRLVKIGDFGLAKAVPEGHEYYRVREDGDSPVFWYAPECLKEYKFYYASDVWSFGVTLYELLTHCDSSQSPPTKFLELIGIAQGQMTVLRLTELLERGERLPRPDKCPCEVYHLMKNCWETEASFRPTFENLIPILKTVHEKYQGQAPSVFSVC

Compound: C=CC(=O)Nc1cccc(Cn2c(=O)ccc3cnc(Nc4ccc(N5CCN(C)CC5)cc4)nc32)c1
IC50 [1]: 8880 nM
IC50 (OCI-Ly3): 1530 nM
IC50 (Jurkat): 2280 nM
IC50 [2]: 2430 nM
IC50 (NCI-H1299): 4780 nM
Ratio IC50 [3]: 8
IC50 [4]: 216 nM
IC50 (HCT-116): 3690 nM
IC50 (U-937 [5]): 50 nM
IC50 (COLO 205): 3840 nM
Activity (U-937 [6]): Active
inhibition [7]: Active
IC50 [8]: 1130 nM
IC50 (Daudi): 2070 nM
inhibition [9]: Dde
IC50 [10]: 261 nM
inhibition [11]: Dde
Ratio IC50 [12]: > 100
IC50 (MDA-MB-231): 3030 nM
Ratio IC50 [13]: > 100
Activity (U-937 [14]): Active
IC50 [15]: 15.6 nM
inhibition [16]: Active
IC50 (MOLT-4): 2250 nM
IC50 [17]: 2 nM

IC50 [17]: > 10000 nM
Compound: C=CC(=O)Nc1cccc(Cn2c(=O)cc(CCC)c3cnc(Nc4ccc(N5CCN(C)CC5)cc4OC)nc32)c1

IC50 [17]: 4800 nM
Compound: C/C=C/C(=O)Nc1cccc(Cn2c(=O)ccc3cnc(Nc4ccccc4OC)nc32)c1

IC50 [17]: 1300 nM
Compound: C=CC(=O)Nc1cccc(Cn2c(=O)ccc3cnc(Nc4ccc(N5CCN(C)CC5)cc4OC(C)C)nc32)c1

IC50 [17]: 18.2 nM
Compound: C=CC(=O)Nc1cccc(Cn2c(=O)cc(C)c3cnc(Nc4ccc(N5CCN(C)CC5)cc4OC)nc32)c1

IC50 (U-937 [5]): 70 nM
IC50 [17]: 2 nM
Compound: C=CC(=O)Nc1cccc(Cn2c(=O)ccc3cnc(Nc4cnn(C5CCN(C)CC5)c4)nc32)c1

IC50 (U-937 [5]): 470 nM
IC50 [17]: 1.7 nM
Compound: C=CC(=O)Nc1cccc(Cn2c(=O)ccc3cnc(Nc4cnn(CCO)c4)nc32)c1

IC50 (U-937 [5]): 520 nM
IC50 [17]: 4.1 nM
Compound: C=CC(=O)Nc1cccc(Cn2c(=O)ccc3cnc(Nc4ccc(C5CCN(C)CC5)cc4OC)nc32)c1

IC50 [17]: 72.1 nM
Compound: C=CC(=O)Nc1ccc(Cn2c(=O)ccc3cnc(Nc4ccccc4OC)nc32)cc1

IC50 [17]: 20 nM
Compound: C=CC(=O)Nc1cccc(Cn2c(=O)cc(CC)c3cnc(Nc4ccc(N5CCN(C)CC5)cc4OC)nc32)c1

IC50 (U-937 [5]): 430 nM
IC50 [17]: 3.3 nM
Compound: C=CC(=O)Nc1cccc(Cn2c(=O)ccc3cnc(Nc4cnn(CCOC)c4)nc32)c1

IC50 (U-937 [5]): 40 nM
Compound: C=CC(=O)N1C[C@H](Nc2ncnc3[nH]ccc23)CC[C@@H]1C [RITLECITINIB]

IC50 (U-937 [5]): 520 nM
IC50 [17]: 3.1 nM
Compound: C=CC(=O)Nc1cccc(Cn2c(=O)ccc3cnc(Nc4ccc(N(C)CCN(C)C)cc4OC)nc32)c1

IC50 [18]: 31.3 nM
Compound: C=CC(=O)Nc1cccc(-n2c(=O)cc(C)c3cnc(Nc4ccc(N5CCN(C)CC5)cc4OC)nc32)c1

IC50 [17]: > 10000 nM
Compound: CCC(=O)Nc1cccc(Cn2c(=O)ccc3cnc(Nc4ccccc4OC)nc32)c1

IC50 (U-937 [5]): 220 nM
IC50 [17]: 1.8 nM
Compound: C=CC(=O)Nc1cccc(Cn2c(=O)ccc3cnc(Nc4cnn(C)c4)nc32)c1

IC50 (U-937 [5]): 1810 nM
IC50 [17]: 9.8 nM
Compound: C=CC(=O)Nc1cccc(Cn2c(=O)ccc3cnc(Nc4ccc(N5CCN(C)CC5)cc4OCC)nc32)c1

IC50 (U-937 [5]): 470 nM
IC50 [17]: 1.6 nM
Compound: C=CC(=O)Nc1cccc(Cn2c(=O)ccc3cnc(Nc4ccc(N5CCN(C)CC5)cc4OC)nc32)c1

IC50 [17]: > 10000 nM
Compound: C=CC(=O)Nc1ccccc1Cn1c(=O)ccc2cnc(Nc3ccccc3OC)nc21

IC50 [17]: 1450 nM
Compound: C=CC(=O)Nc1cccc(Cn2c(=O)cc(C3CC3)c3cnc(Nc4ccc(N5CCN(C)CC5)cc4OC)nc32)c1

IC50 (U-937 [5]): 540 nM
IC50 [17]: 3.3 nM
Compound: C=CC(=O)Nc1cccc(Cn2c(=O)ccc3cnc(Nc4ccc(N5CCN(C(C)=O)CC5)cc4OC)nc32)c1

IC50 (U-937 [5]): 2020 nM
IC50 [17]: 3 nM
Compound: C=CC(=O)Nc1cccc(Cn2c(=O)ccc3cnc(Nc4ccccc4OC)nc32)c1
